Measurements published in PubChem BioAssay AID2060501 (Molecular Pharmacology Branch, DTP, NCI, 2025).

System: 282377-053-R-J1-PDC complex spheroids, viability
Assay: Anticancer human tumor 282377-053-R-J1-PDC patient-derived colon adenocarcinoma cell line growth inhibition [GQUAD]
Conditions: for IC50: curve of first compound; for viability, T/C: stronger effect = lower value
Method in brief: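 Multi-cell-type spheroids of tumor cells with HUVEC and mesenchymal stem cells, treated with drug combinations. Concentrations descend in half-log steps from near clinical Cmax, or from 10 microM where Cmax is unknown; viability read-out.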

[1] = second compound 0.0316 µM, first compound 0.0316 µM
[2] = second compound 0.0316 µM, first compound 0.1 µM
[3] = second compound 0.0316 µM, first compound 0.316 µM
[4] = second compound 0.0316 µM, first compound 1 µM
[5] = second compound 0.0316 µM, first compound 3.16 µM
[6] = second compound 0.0316 µM, first compound 10 µM
[7] = second compound 0.1 µM, first compound 0.0316 µM
[8] = second compound 0.1 µM, first compound 0.1 µM
[9] = second compound 0.1 µM, first compound 0.316 µM
[10] = second compound 0.1 µM, first compound 1 µM
[11] = second compound 0.1 µM, first compound 3.16 µM
[12] = second compound 0.1 µM, first compound 10 µM
[13] = second compound 0.316 µM, first compound 0.0316 µM
[14] = second compound 0.316 µM, first compound 0.1 µM
[15] = second compound 0.316 µM, first compound 0.316 µM
[16] = second compound 0.316 µM, first compound 1 µM
[17] = second compound 0.316 µM, first compound 3.16 µM
[18] = second compound 0.316 µM, first compound 10 µM
[19] = second compound 1 µM, first compound 0.0316 µM
[20] = second compound 1 µM, first compound 0.1 µM
[21] = second compound 1 µM, first compound 0.316 µM
[22] = second compound 1 µM, first compound 1 µM
[23] = second compound 1 µM, first compound 3.16 µM
[24] = second compound 1 µM, first compound 10 µM
[25] = second compound 3.16 µM, first compound 0.0316 µM
[26] = second compound 3.16 µM, first compound 0.1 µM
[27] = second compound 3.16 µM, first compound 0.316 µM
[28] = second compound 3.16 µM, first compound 1 µM
[29] = second compound 3.16 µM, first compound 3.16 µM
[30] = second compound 3.16 µM, first compound 10 µM
[31] = second compound 10 µM, first compound 0.0316 µM
[32] = second compound 10 µM, first compound 0.1 µM
[33] = second compound 10 µM, first compound 0.316 µM
[34] = second compound 10 µM, first compound 1 µM
[35] = second compound 10 µM, first compound 3.16 µM
[36] = second compound 10 µM, first compound 10 µM
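Further: spheroids exposed to compounds for 7 days before readout.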
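Wherever viability, T/C is given: percent of vehicle DMSO control viability with 100% = untreated-like growth.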

In the case of `C=CC(=O)N1CCN(c2nc(=O)n(-c3c(C)ccnc3C(C)C)c3nc(-c4c(O)cccc4F)c(F)cc23)C(C)C1` (centres undefined) + Cc1[nH]c2ccc(F)cc2c1-c1nc2c3cccnc3c3ncccc3c2[nH]1, the IC50 (second compound 0.0316 µM) is reported as > 10000 nM, the IC50 (second compound 0.1 µM) is reported as > 10000 nM and the IC50 (second compound 0.316 µM) is reported as > 10000 nM. The IC50 (second compound 1 µM) was > 10000 nM, the IC50 (second compound 3.16 µM) was 9670 nM and the IC50 (second compound 10 µM) was < 31.6 nM. For the same compound, the viability, T/C [1] was 106%, the viability, T/C [2] was 102% and the viability, T/C [3] was 125%. The viability, T/C [4] was 108%, the viability, T/C [5] was 126% and the viability, T/C [6] was 80.9%. For the same compound, the viability, T/C [7] was 122%, the viability, T/C [8] was 110% and the viability, T/C [9] was 98.9%. For the same compound, the viability, T/C [10] was 100%, the viability, T/C [11] was 100% and the viability, T/C [12] was 89.9%. The viability, T/C [13] was 109%, the viability, T/C [14] was 110% and the viability, T/C [15] was 87.1%. It also gave a viability, T/C [16] of 122%, a viability, T/C [17] of 105% and a viability, T/C [18] of 99.8%. For the same compound, the viability, T/C [19] was 114%, the viability, T/C [20] was 98.1% and the viability, T/C [21] was 103%. It also gave a viability, T/C [22] of 106%, a viability, T/C [23] of 119% and a viability, T/C [24] of 103%. The viability, T/C [25] was 82.1%, the viability, T/C [26] was 108% and the viability, T/C [27] was 71.5%. For the same compound, the viability, T/C [28] was 75.9%, the viability, T/C [29] was 98.4% and the viability, T/C [30] was 48.8%. For the same compound, the viability, T/C [31] was 28.3%, the viability, T/C [32] was 32% and the viability, T/C [33] was 37.6%. It also gave a viability, T/C [34] of 40%, a viability, T/C [35] of 31% and a viability, T/C [36] of 27.2%.

`Nc1ccn(C2OC(CO)C(O)C2(F)F)c(=O)n1` (centres undefined) + CN(C)c1ccc(Nc2c3ccc(NC(=O)CCN4CCCC4)cc3nc3cc(NC(=O)CCN4CCCC4)ccc23)cc1 gave an IC50 (second compound 0.0316 µM) of 290 nM, an IC50 (second compound 0.1 µM) of 296 nM and an IC50 (second compound 0.316 µM) of 263 nM. The IC50 (second compound 1 µM) was 271 nM, the IC50 (second compound 3.16 µM) was 227 nM and the IC50 (second compound 10 µM) was 228 nM. It also gave a viability, T/C [1] of 112%, a viability, T/C [2] of 68.5% and a viability, T/C [3] of 49.7%. For the same compound, the viability, T/C [4] was 35.8%, the viability, T/C [5] was 32.5% and the viability, T/C [6] was 20.7%. It also gave a viability, T/C [7] of 114%, a viability, T/C [8] of 78.7% and a viability, T/C [9] of 42.9%. For the same compound, the viability, T/C [10] was 37.7%, the viability, T/C [11] was 30.8% and the viability, T/C [12] was 20.3%. For the same compound, the viability, T/C [13] was 115%, the viability, T/C [14] was 77.9% and the viability, T/C [15] was 40.9%. The viability, T/C [16] was 35.8%, the viability, T/C [17] was 33.7% and the viability, T/C [18] was 19.7%. The viability, T/C [19] was 95%, the viability, T/C [20] was 77.6% and the viability, T/C [21] was 42.7%. The viability, T/C [22] was 35.7%, the viability, T/C [23] was 32.7% and the viability, T/C [24] was 20.3%. It also gave a viability, T/C [25] of 87.6%, a viability, T/C [26] of 59.9% and a viability, T/C [27] of 44.5%. The viability, T/C [28] was 38.3%, the viability, T/C [29] was 38.5% and the viability, T/C [30] was 26.9%. For the same compound, the viability, T/C [31] was 92.1%, the viability, T/C [32] was 74% and the viability, T/C [33] was 40.2%. It also gave a viability, T/C [34] of 30.9%, a viability, T/C [35] of 36.3% and a viability, T/C [36] of 22.8%.
